Experimental data reported in patent US20230225990A1, “DIMETHYL SULFONE FOR TREATMENT OF CHRONICALLY HEAT STRESSED POULTRY” (Evonik Operations GmbH, priority 2020, published 2023).
Marks after values point to notes of the source that are not given here.

Legend:
Format in all cases: in vivo, broiler chickens (Ross 308)
[1] = system: male broilers subjected to chronic cyclic heat stress; assay: Parameters in breast muscle of birds sampled at d-23, d-25 and d-39
Description: (§1) Sampling of one bird per pen (with weight close to average weight of the pen) on d-23, d-25 and on d-39 (on d-25 and d-39, sampling starts after >3 h of heat stress that day; 108 birds in total) • malondialdehyde, HSP70 (Chicken Heat Shock Protein 70, Hsp-70 ELISA Kit) Cusabio Code CSB-E11196Ch), HSP90 (Chicken Heat Shock Protein 90, HSP-90 ELISA Kit; Cusabio Code CSB-E12873C), GPx, SOD in plasma; GSH/GSSG in erythrocytes; and T3, T4 and nitric oxide in serum • Breast muscle and liver: malondialdehyde, AOX (GPx, SOD), GSH/GSSG
(§2) For physiological measurements, time of sampling (representing the number of minutes between the beginning of heat stress and the precise moment of sampling of the bird that day), if appropriate, was included in the model as a covariable if significant as well. Orthogonal contrasts were applied to test for linear and quadratic effects upon incremental levels of DMS supplementation in the diet. Means are given as estimated marginal means (least square means). Means were separated using the Tukey post-hoc test. Differences were considered significant when p<0.05 and as a trend for significance when p<0.1.

[2] = system: male broilers subjected to chronic cyclic heat stress; assay: Body weight and rectal temperature of birds sampled at d-23, d-25 and d-39
Description: as §1, §2
At d-23, d-25 and d39, one bird per pen (with weight close to average weight of the pen) was sampled. On d-25 and d-39, sampling started after >3 h of heat stress that day. Thus, in total 108 birds were sampled, and various endpoints were determined in several tissues. To recall, finisher period started on d-21, while the heat stress protocol was implemented from d-24 onwards. It means that d-23 was the last day prior to heat stress and d-25 the second day whereby birds were subjected to high temperatures. Body weights on d-23 and d-25 (Table 7) were naturally higher than those reported on d-21 (Table 3), but not affected by treatment. Body weights at d-39 for sampled birds are very close to body weights for d-39 shown in Table 3, which confirms that birds with weight close to average weight of the pen were selected. Again, this was not affected by supplementation with DMS. Rectal temperature of sampled birds on d-23 represents values for thermo-neutral conditions, and thus ranged between 41.1 and 41.3° C. without treatment differences (FIG. 15). However, on d-25 rectal temperatures were largely elevated and obviously affected by diet (P<0.05). […] Nonetheless, observations are in line with findings on d-38 (Table 4).

[3] = system: male broilers subjected to chronic cyclic heat stress; assay: Rectal temperature and panting frequency during heat stress
Description: The finisher period started at d-21, and the chronic cyclic heat stress (HS) protocol was applied from d-24 until d-39. Starting from d-24, the temperature was increased from 22° C. to 34° C. for 6 hours per day (from 9:00 to 15:00) with relative air humidity (RH) between 52 and 58%. From 8:00 to 9:00, the temperature was increased from 22° C. to 34° C., and from 15:00 to 16:00, the temperature was decreased from 34° C. to 22° C. The rest of the day the temperature was 22° C. The room was equipped with heaters with thermostats, and air circulators to enable the desired temperature and RH to be maintained, providing sufficient ventilation and air conditions. RH was adjusted with manual spraying of water on stable walls, periodically. The temperature and the RH were recorded at 10-min intervals with a dry bulb thermo-hygrometer (Escort RH iLog, Escort Verification Technologies Inc., Buchanan, United States).
Rectal temperature and panting frequency (video analyses) (for 2 selected birds per pen on 3 days: d-24, d-31 and d-38, measured after 4 h of heat stress that day)

[4] = 0.2% DMS in diet (T3), sampled birds d-25
[5] = 0.1% DMS in diet (T2), Total, all days
[6] = 0.1% DMS in diet (T2), d-24, during heat stress
[7] = 0.1% DMS in diet (T2), d-31, during heat stress
[8] = 0.1% DMS in diet (T2), d-38, during heat stress
[9] = 0.2% DMS in diet (T3), Total, all days
[10] = 0.2% DMS in diet (T3), d-24, during heat stress
[11] = 0.2% DMS in diet (T3), d-31, during heat stress
[12] = 0.2% DMS in diet (T3), d-38, during heat stress

SMILES: CS(C)(=O)=O [DMS, dimethyl sulfone]
- Glutathione (GSH) ([1]; 0.1% DMS in diet (T2), d-23): 1.00 µmol/g
- Glutathione peroxidase ([1]; 0.1% DMS in diet (T2), d-23): 0.39 U/g
- Malondialdehyde ([1]; 0.1% DMS in diet (T2), d-23): 4.72 nmol/g
- Super oxide dismutase ([1]; 0.1% DMS in diet (T2), d-23): 29.7 U/g
- Glutathione (GSH) ([1]; 0.1% DMS in diet (T2), d-25): 1.30^ab μmol/g
- Glutathione peroxidase ([1]; 0.1% DMS in diet (T2), d-25): 0.42 U/g
- Malondialdehyde ([1]; 0.1% DMS in diet (T2), d-25): 4.6 nmol/g
- Super oxide dismutase ([1]; 0.1% DMS in diet (T2), d-25): 27.3 U/g
- Glutathione (GSH) ([1]; 0.1% DMS in diet (T2), d-39): 1.46 µmol/g
- Glutathione peroxidase ([1]; 0.1% DMS in diet (T2), d-39): 0.46 U/g
- Malondialdehyde ([1]; 0.1% DMS in diet (T2), d-39): 5.23 nmol/g
- Super oxide dismutase ([1]; 0.1% DMS in diet (T2), d-39): 27.4 U/g
- Glutathione (GSH) ([1]; 0.2% DMS in diet (T3), d-23): 1.10 µmol/g
- Glutathione peroxidase ([1]; 0.2% DMS in diet (T3), d-23): 0.38 U/g
- Malondialdehyde ([1]; 0.2% DMS in diet (T3), d-23): 4.5 nmol/g
- Super oxide dismutase ([1]; 0.2% DMS in diet (T3), d-23): 32.6 U/g
- Glutathione (GSH) ([1]; 0.2% DMS in diet (T3), d-25): 1.39^a μmol/g
- Glutathione peroxidase ([1]; 0.2% DMS in diet (T3), d-25): 0.44 U/g
- Malondialdehyde ([1]; 0.2% DMS in diet (T3), d-25): 4.5 nmol/g
- Super oxide dismutase ([1]; 0.2% DMS in diet (T3), d-25): 28.1 U/g
- Glutathione (GSH) ([1]; 0.2% DMS in diet (T3), d-39): 1.56 µmol/g
- Glutathione peroxidase ([1]; 0.2% DMS in diet (T3), d-39): 0.50 U/g
- Malondialdehyde ([1]; 0.2% DMS in diet (T3), d-39): 5.57 nmol/g
- Super oxide dismutase ([1]; 0.2% DMS in diet (T3), d-39): 26.2 U/g
- Body weight ([2]; 0.1% DMS in diet (T2), sampled birds d-23): 1361 g
- Rectal temperature ([2]; 0.1% DMS in diet (T2), sampled birds d-23 (prior to heat stress)): 41.3 °C
- Body weight ([2]; 0.1% DMS in diet (T2), sampled birds d-25): 1544 g
- Rectal temperature ([2]; 0.1% DMS in diet (T2), sampled birds d-25, during heat stress): 42.5^b ° C.
- Body weight ([2]; 0.1% DMS in diet (T2), sampled birds d-39): 3097 g
- Rectal temperature ([2]; 0.1% DMS in diet (T2), sampled birds d-39, during heat stress): 42.6 °C
- Body weight ([2]; 0.2% DMS in diet (T3), sampled birds d-23): 1352 g
- Rectal temperature ([2]; 0.2% DMS in diet (T3), sampled birds d-23 (prior to heat stress)): 41.1 °C
- Body weight [2, 4]: 1536 g
- Rectal temperature lower than control [2, 4]: 0.5 °C
- Rectal temperature ([2]; 0.2% DMS in diet (T3), sampled birds d-25, during heat stress): 42.3^b ° C.
- Body weight ([2]; 0.2% DMS in diet (T3), sampled birds d-39): 3068 g
- Rectal temperature ([2]; 0.2% DMS in diet (T3), sampled birds d-39, during heat stress): 42.3 °C
- Panting [3, 5]: 141 #/min
- Rectal temperature [3, 5]: 42.6^ab ° C.
- Panting [3, 6]: 119^ab #/min
- Rectal temperature [3, 6]: 42.3 °C
- Panting [3, 7]: 158 #/min
- Rectal temperature [3, 7]: 42.9 °C
- Panting [3, 8]: 147 #/min
- Rectal temperature [3, 8]: 42.7 °C
- Panting [3, 9]: 137 #/min
- Rectal temperature [3, 9]: 42.5^b ° C.
- Panting [3, 10]: 112^b #/min
- Rectal temperature [3, 10]: 42.3 °C
- Panting [3, 11]: 143 #/min
- Rectal temperature [3, 11]: 42.6 °C
- Panting [3, 12]: 152 #/min
- Rectal temperature [3, 12]: 42.6 °C
